The record followed here is ChEMBL document CHEMBL4052645, “Discovery of potent and efficacious pyrrolopyridazines as dual JAK1/3 inhibitors” (Bioorg Med Chem Lett, 2017).

In assay [1] the target is Myosin-IIIa (Homo sapiens) (UniProt Q8NEV4). Kind of assay: Inhibition of wild-type human partial length MYO3A (M1 to K338 residues) expressed in bacterial expression system assessed as residual activity at 50 nM by Kinomescan method relative to control.
Assay [2] addresses Receptor tyrosine-protein kinase erbB-3 (Homo sapiens) (UniProt P21860). Kind of assay: Inhibition of wild-type human partial length ERBB3 (G684 to A987 residues) expressed in mammalian expression system assessed as residual activity at 50 nM by Kinomescan method relative to control.
Assay [3] concerns the target G protein-coupled receptor kinase 4 (Homo sapiens) (UniProt P32298). Kind of assay: Inhibition of wild-type human full length GPRK4 (M1 to C578 residues) expressed in bacterial expression system assessed as residual activity at 50 nM by Kinomescan method relative to control.
Assay [4] deals with Receptor-interacting serine/threonine-protein kinase 1 (Homo sapiens) (UniProt Q13546). The assay is described as follows: Inhibition of wild-type human partial length RIPK1 (M1 to K305 residues) expressed in bacterial expression system assessed as residual activity at 50 nM by Kinomescan method relative to control.
The target of assay [5] is Serine/threonine-protein kinase RIO3 (Homo sapiens) (UniProt O14730). Kind of assay: Inhibition of full length human RIOK3 (M1 to E519 residues) expressed in bacterial expression system assessed as residual activity at 50 nM by KINOMEscan assay relative to control.
The target in assay [6] is Mitogen-activated protein kinase kinase kinase kinase 1 (Homo sapiens) (UniProt Q92918). The assay is described as follows: Inhibition of wild-type human full length HPK1 (M1 to R799 residues) expressed in bacterial expression system assessed as residual activity at 50 nM by Kinomescan method relative to control.
The target of assay [7] is Serine/threonine-protein kinase PRP4 homolog (Homo sapiens) (UniProt Q13523). The assay is described as follows: Inhibition of wild-type human partial length PRP4 (D657 to I1007 residues) expressed in bacterial expression system assessed as residual activity at 50 nM by Kinomescan method relative to control.
The target of assay [8] is Mitogen-activated protein kinase 13 (Homo sapiens) (UniProt O15264). The assay is described as follows: Inhibition of wild-type human full length p38-delta (M1 to L365 residues) expressed in bacterial expression system assessed as residual activity at 50 nM by Kinomescan method relative to control.
Assay [9] deals with Mitogen-activated protein kinase kinase kinase 11 (Homo sapiens) (UniProt Q16584). The assay is described as follows: Inhibition of wild-type human partial length MLK3 (I77 to W399 residues) expressed in bacterial expression system assessed as residual activity at 50 nM by Kinomescan method relative to control.
Assay [10] deals with Epidermal growth factor receptor (Homo sapiens) (UniProt P00533). Kind of assay: Inhibition of wild-type human partial length EGFR (R669 to V1011 residues) expressed in bacterial expression system assessed as residual activity at 50 nM by Kinomescan method relative to control.
In assay [11] the target is Ribosomal protein S6 kinase alpha-5 (Homo sapiens) (UniProt O75582). The assay is described as follows: Inhibition of wild-type human partial length C-terminal MSK1 kinase domain 2 (V390 to T718 residues) expressed in bacterial expression system assessed as residual activity at 50 nM by Kinomescan method relative to control.
The target of assay [12] is Citron Rho-interacting kinase (Homo sapiens) (UniProt O14578). The assay is described as follows: Inhibition of wild-type human partial length CRIK (M68 to E432 residues) expressed in bacterial expression system assessed as residual activity at 50 nM by Kinomescan method relative to control.
In assay [13] the target is Serine/threonine-protein kinase/endoribonuclease IRE1 (Homo sapiens) (UniProt O75460). Kind of assay: Inhibition of wild-type human partial length IRE1 (S551 to E852 residues) expressed in mammalian expression system assessed as residual activity at 50 nM by Kinomescan method relative to control.
Assay [14] concerns the target Ephrin type-A receptor 4 (Homo sapiens) (UniProt P54764). The assay is described as follows: Inhibition of wild-type human partial length EPHA4 (T601 to R897 residues) expressed in bacterial expression system assessed as residual activity at 50 nM by Kinomescan method relative to control.
In assay [15] the target is Dual specificity tyrosine-phosphorylation-regulated kinase 1A (Homo sapiens) (UniProt Q13627). The assay is described as follows: Inhibition of wild-type human partial length DYRK1A (H129 to S509 residues) expressed in mammalian expression system assessed as residual activity at 50 nM by Kinomescan method relative to control.
For assay [16], the target named is Bone morphogenetic protein receptor type-2 (Homo sapiens) (UniProt Q13873). The assay is described as follows: Inhibition of wild-type human partial length BMPR2 (R179 to Q526 residues) expressed in mammalian expression system assessed as residual activity at 50 nM by Kinomescan method relative to control.
In assay [17] the target is Serine/threonine-protein kinase 26 (Homo sapiens) (UniProt Q9P289). The assay is described as follows: Inhibition of full lengthhuman MST4 (M1 to P416 residues) expressed in mammalian expression system assessed as residual activity at 50 nM by KINOMEscan assay relative to control.
Assay [18] addresses Serine/threonine-protein kinase PLK2 (Homo sapiens) (UniProt Q9NYY3). Kind of assay: Inhibition of wild-type human partial length PLK2 (H58 to F354 residues) expressed in mammalian expression system assessed as residual activity at 50 nM by Kinomescan method relative to control.
Assay [19] addresses Phosphatidylinositol 3-kinase C2 domain-containing subunit gamma (Homo sapiens) (UniProt O75747). The assay is described as follows: Inhibition of wild-type human partial length PI3KC2G (M1 to I1446 residues) expressed in mammalian expression system assessed as residual activity at 50 nM by Kinomescan method relative to control.
Assay [20] deals with Receptor-interacting serine/threonine-protein kinase 2 (Homo sapiens) (UniProt O43353). The assay is described as follows: Inhibition of wild-type human partial length RIPK2 (M1 to K310 residues) expressed in bacterial expression system assessed as residual activity at 50 nM by Kinomescan method relative to control.
Assay [21] concerns the target Serine/threonine-protein kinase Nek6 (Homo sapiens) (UniProt Q9HC98). Kind of assay: Inhibition of wild-type human full length NEK6 (M8 to T313 residues) expressed in bacterial expression system assessed as residual activity at 50 nM by Kinomescan method relative to control.
The target in assay [22] is Phosphatidylinositol 4,5-bisphosphate 3-kinase catalytic subunit delta isoform (Homo sapiens) (UniProt O00329). The assay is described as follows: Inhibition of wild-type human partial length PIK3CD (R108 to Q1044 residues) expressed in mammalian expression system assessed as residual activity at 50 nM by Kinomescan method relative to control.
Assay [23] has as its target Homeodomain-interacting protein kinase 1 (Homo sapiens) (UniProt Q86Z02). Kind of assay: Inhibition of wild-type human partial length HIPK1 (M146 to I555 residues) expressed in mammalian expression system assessed as residual activity at 50 nM by Kinomescan method relative to control.
Assay [24] has as its target Casein kinase II subunit alpha' (Homo sapiens) (UniProt P19784). The assay is described as follows: Inhibition of wild-type human full length CK2A2 (M1 to R350 residues) expressed in mammalian expression system assessed as residual activity at 50 nM by Kinomescan method relative to control.

For the molecule `COc1ccc(-c2cc3c(N[C@@H]4CC[C@](C)(N)C4(C)C)c(C(N)=O)cnn3c2)cn1`, the Activity in [1] came out at 94%; in [2], 100%; in [3], 100%; in assay [4], 100%; in [5], 66%; in [6], 70%. For the same molecule, the Activity in [7] came to 97%; in assay [8], 100%; in [9], 100%; in assay [10] it was 100%; in assay [11] it was 100%; in assay [12], 100%. Further, the Activity in assay [13] came out at 90%; in assay [14], 100%; in assay [15], 100%; in [16] it was 100%; in assay [17] it was 23%; in [18], 100%. Besides, the Activity in [19] was determined as 100%; in assay [20], 100%; in assay [21], 97%; in assay [22], 100%; in assay [23] it was 100%; in assay [24], 85%.

For `CC1(C)[C@H](Nc2c(C(N)=O)cnn3cc(-c4ccccc4)cc23)CC[C@]1(C)N`, the Activity in assay [1] came to 87%; in assay [2], 100%; in assay [3] it was 64%; in assay [4], 92%; in [5], 3.7%; in [6], 66%. Also, the Activity in assay [7] turned out to be 95%; in assay [8] it was 100%; in assay [9], 64%; in [10] it was 30%; in assay [11] it was 95%; in assay [12], 100%. In addition, the Activity in assay [13] is 90%; in assay [14], 100%; in [15] it was 73%; in assay [16], 93%; in assay [17], 12%; in assay [18] it was 100%. In addition, the Activity in [19] was determined as 100%; in assay [20] it was 93%; in [21], 88%; in assay [22] it was 44%; in assay [23], 100%; in assay [24] it was 92%.
